Laboratory results from paper PMC12498271, “A First-In-Human Dose-Escalation Phase I Study of Basroparib, a Tankyrase Inhibitor, in Patients with Advanced-Stage Solid Tumors” (Cancer Research Communications, 2025).
“Also recorded” adds a separate entry of the source. Marks after values point to notes of the source that are not given here.

Tests used:
[1] = phase I plasma pharmacokinetics (HPLC-MS/MS, non-compartmental); assay type: in vivo, human; conditions: for Tmax / Tmax,ss: median (min, max); for t1/2: arithmetic mean (±SD)
Method: Blood samples for PK analysis were collected with K2EDTA tubes in serial before dose and at 0.25, 0.5, 1, 1.5, 2, 3, 4, 6, 8, 12, and 24 hours after dose on cycle 1 day 1 and before dose and at 1, 2, 3, 4, and 6 hours after dose on cycle 1 day 8 and before dose on days 1 and 15 of cycle 2 and beyond. Plasma concentrations of basroparib and its major metabolite, STP06-1007, were determined using the validated high-performance liquid chromatography/tandem mass spectrometry method at the bioanalytic laboratory (Celerion, Inc.). The analytic range (lower limit of quantitation – upper limit of quantitation) for basroparib and STP06-1007 was 0.05 to 250 ng/mL. Non-compartmental PK parameters were calculated using Phoenix WinNonlin version 8.4.0 (Certara).

[2] = GLP toxicology study in dog; cited from earlier work
[3] = Day 1, Cohort 1 (30 mg, once daily) N = 3, geometric mean (geometric CV%)
[4] = Day 1, Cohort 2 (60 mg, once daily) N = 4, geometric mean (geometric CV%)
[5] = Day 1, Cohort 3 (120 mg, once daily) N = 3, geometric mean (geometric CV%)
[6] = Day 1, Cohort 4 (180 mg, once daily) N = 5
[7] = Day 1, Cohort 4 (180 mg, once daily) N = 5, geometric mean (geometric CV%)
[8] = Day 1, Cohort 5 (240 mg, once daily) N = 3, geometric mean (geometric CV%)
[9] = Day 1, Cohort 6 (300 mg, once daily) N = 3, geometric mean (geometric CV%)
[10] = Day 1, Cohort 7 (360 mg, once daily) N = 4
[11] = Day 1, Cohort 7 (360 mg, once daily) N = 4, geometric mean (geometric CV%)
[12] = Day 8, Cohort 1 (30 mg, once daily) N = 3, geometric mean (geometric CV%)
[13] = Day 8, Cohort 2 (60 mg, once daily) N = 4, geometric mean (geometric CV%)
[14] = Day 8, Cohort 3 (120 mg, once daily) N = 3, geometric mean (geometric CV%)
[15] = Day 8, Cohort 4 (180 mg, once daily) N = 5, geometric mean (geometric CV%)
[16] = Day 8, Cohort 5 (240 mg, once daily) N = 3, geometric mean (geometric CV%)
[17] = Day 8, Cohort 7 (360 mg, once daily) N = 4, geometric mean (geometric CV%)
[18] = basroparib, 180 to 240 mg dose levels
[19] = day 1, patient 01-002, Cohort 2, 60 mg once daily
[20] = day 1, patient 01-007, Cohort 6, 300 mg once daily
[21] = day 1, patient 02-002, Cohort 4, 180 mg once daily
[22] = day 1, patient 03-012, Cohort 6, 300 mg once daily
[23] = day 1, three of four patients with stable disease
[24] = day 8 (steady state), patient 01-002, Cohort 2, 60 mg once daily
[25] = day 8 (steady state), patient 01-007, Cohort 6, 300 mg once daily
[26] = day 8 (steady state), patient 02-002, Cohort 4, 180 mg once daily
[27] = day 8 (steady state), patient 03-012, Cohort 6, 300 mg once daily

## COCCOc1cc(F)c(N2CCN(c3nc4c(nnn4C)c(=O)[nH]3)CC2)c(F)c1 [basroparib]
[1]; Cmax and AUCs
  exposure following 360 mg dose compared with 300 mg dose: slightly lower
[1]; [3]
  AUC0–6: 2,464.7 (50.60) hours × ng/mL
  AUClast: 4,845.4 (50.38) hours × ng/mL
  Cmax: 720.7 (37.01) ng/mL
[1]; Day 1, Cohort 1 (30 mg, once daily) N = 3
  Tmax: 3.0 (3, 3) hours
[1]; Day 1, Cohort 1 (30 mg, once daily), two patients
  t1/2: 6.0 (±3.69)^a hours
[1]; [4]
  AUC0–6: 3,169.7 (44.98) hours × ng/mL
  AUClast: 6,415.2 (69.39) hours × ng/mL
  Cmax: 968.3 (30.69) ng/mL
[1]; Day 1, Cohort 2 (60 mg, once daily) N = 4
  Tmax: 3.0 (3, 4) hours
[1]; Day 1, Cohort 2 (60 mg, once daily), three patients
  t1/2: 11.0 (±5.33)^b hours
[1]; [5]
  AUC0–6: 5,425.0 (51.50) hours × ng/mL
  AUClast: 15,835.9 (25.14) hours × ng/mL
  Cmax: 1,532.4 (68.26) ng/mL
[1]; Day 1, Cohort 3 (120 mg, once daily) N = 3
  Tmax: 3.0 (3, 24) hours
[1]; Day 1, Cohort 3 (120 mg, once daily), two patients
  t1/2: 7.6 (±0.42)^a hours
[1]; [6]
  t1/2: 7.7 (±3.13) hours
  Tmax: 3.0 (2, 3) hours
[1]; [7]
  AUC0–6: 8,233.8 (67.46) hours × ng/mL
  AUClast: 16,504.6 (61.80) hours × ng/mL
  Cmax: 2,345.5 (68.30) ng/mL
[1]; [8]
  AUC0–6: 7,622.5 (57.67) hours × ng/mL
  AUClast: 15,893.0 (18.35) hours × ng/mL
  Cmax: 2,417.1 (54.86) ng/mL
[1]; Day 1, Cohort 5 (240 mg, once daily) N = 3
  Tmax: 3.0 (2, 6) hours
[1]; Day 1, Cohort 5 (240 mg, once daily), two patients
  t1/2: 6.0 (±0.39)^a hours
[1]; [9]
  AUC0–6: 10,968.4 (109.20) hours × ng/mL
  AUClast: 24,221.3 (103.59) hours × ng/mL
  Cmax: 2,894.1 (115.67) ng/mL
[1]; Day 1, Cohort 6 (300 mg, once daily) N = 3
  Tmax: 3.0 (2, 4) hours
[1]; Day 1, Cohort 6 (300 mg, once daily), two patients
  t1/2: 6.2 (±2.70)^a hours
[1]; [10]
  t1/2: 5.8 (±0.94) hours
  Tmax: 3.5 (3, 6) hours
[1]; [11]
  AUC0–6: 9,022.0 (45.09) hours × ng/mL
  AUClast: 19,692.3 (32.54) hours × ng/mL
  Cmax: 2,779.1 (46.78) ng/mL
[1]; [12]
  AUC0–6,ss: 2,584.9 (22.71) hours × ng/mL
  Cmax,ss: 789.0 (5.20) ng/mL
[1]; Day 8, Cohort 1 (30 mg, once daily) N = 3
  Tmax,ss: 3.0 (3, 6) hours
[1]; [13]
  AUC0–6,ss: 3,703.0 (23.05) hours × ng/mL
  Cmax,ss: 1,046.3 (49.51) ng/mL
[1]; Day 8, Cohort 2 (60 mg, once daily) N = 4
  Tmax,ss: 3.5 (3, 6) hours
[1]; [14]
  AUC0–6,ss: 6,447.2 (65.26) hours × ng/mL
  Cmax,ss: 1,526.2 (44.31) ng/mL
[1]; Day 8, Cohort 3 (120 mg, once daily) N = 3
  Tmax,ss: 3.0 (3, 4) hours
[1]; [15]
  AUC0–6,ss: 10,506.4 (121.25) hours × ng/mL
  Cmax,ss: 2,833.1 (105.02) ng/mL
[1]; Day 8, Cohort 4 (180 mg, once daily) N = 5
  Tmax,ss: 3.0 (3, 4) hours
[1]; [16]
  AUC0–6,ss: 10,509.6 (74.82) hours × ng/mL
  Cmax,ss: 3,139.9 (86.00) ng/mL
[1]; Day 8, Cohort 5 (240 mg, once daily) N = 3
  Tmax,ss: 3.0 (3, 4) hours
[1]; Day 8, Cohort 6 (300 mg, once daily) N = 3, geometric mean (geometric CV%)
  Cmax,ss: 2,933.8 (79.18) ng/mL
[1]; Day 8, Cohort 6 (300 mg, once daily) N = 3
  Tmax,ss: 3.0 (2, 4) hours
[1]; Day 8, Cohort 6 (300 mg, once daily), two patients, geometric mean (geometric CV%)
  AUC0–6,ss: 16,803.6 (10.54)^a hours × ng/mL
[1]; [17]
  AUC0–6,ss: 7,472.7 (103.39) hours × ng/mL
  Cmax,ss: 2,289.7 (70.09) ng/mL
[1]; Day 8, Cohort 7 (360 mg, once daily) N = 4
  Tmax,ss: 4.0 (2, 6) hours
[1]; all dose levels except the 60 mg dose
  mean half-life (t1/2): 6 to 9 h
[1]; all dose levels, day 1 and day 8 (steady state), oral
  time to Cmax (median): 3 to 4 h
[1]; [18]
  change in AUC0–6 on day 8 compared with day 1: 1.4- to 1.7 fold
  change in Cmax on day 8 compared with day 1: 1.2- to 1.6 fold
[1]; [19]
  AUC0–6: 3,050 hours × ng/mL
  AUClast: 4,960 hours × ng/mL
  Cmax: 883 ng/mL
[1]; [20]
  AUC0–6: 15,900 hours × ng/mL
  AUClast: 47,800 hours × ng/mL
  Cmax: 3,890 ng/mL
[1]; [21]
  AUC0–6: 16,300 hours × ng/mL
  AUClast: 40,600 hours × ng/mL
  Cmax: 4,130 ng/mL
[1]; [22]
  AUC0–6: 20,800 hours × ng/mL
  AUClast: 32,000 hours × ng/mL
  Cmax: 6,050 ng/mL
[1]; [23]
  AUClast: > 32,000 hours × ng/mL
  Cmax: > 3,890 ng/mL
[1]; day 1 and day 8, three of four patients with stable disease
  AUC0–6: > 15,000 hours × ng/mL
[1]; [24]
  AUC0–6,ss: 3,200 hours × ng/mL
  Cmax,ss: 744 ng/mL
[1]; [25]
  AUC0–6,ss: 15,600 hours × ng/mL
  Cmax,ss: 3,820 ng/mL
[1]; [26]
  AUC0–6,ss: 27,300 hours × ng/mL
  Cmax,ss: 6,640 ng/mL
[1]; [27]
  AUC0–6,ss: 18,100 hours × ng/mL
  Cmax,ss: 4,970 ng/mL
[1]; dose increase up to 300 mg
  increase of Cmax and AUCs with dose: less than proportionally; also recorded: less than proportional
[2]
  GI toxicity: has not been seen inducing any GI toxicity
